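Briefly, cells in 96-well plates were exposed to five compound concentrations for 48 h, and endpoints were estimated by linear interpolation. Abbreviation: GI50, concentration required for 50% inhibition of growth. TGI marks complete inhibition of growth.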
Legend:
Experiment in all cases: inhibition of tumour cell growth, NCI panel, 48 h
T-47D breast = test system: T-47D breast
HS 578T breast = test system: HS 578T breast
MDA-N = test system: MDA-N
PC-3 prostate = test system: PC-3 prostate
KM20L2 colon = test system: KM20L2 colon

Row | Compound | GI50 (T-47D breast) [µM] | TGI (T-47D breast) [µM] | GI50 (HS 578T breast) [µM] | TGI (HS 578T breast) [µM] | GI50 (MDA-N) [µM] | TGI (MDA-N) [µM] | TGI (PC-3 prostate) [µM] | GI50 (PC-3 prostate) [µM] | GI50 (KM20L2 colon) [µM] | TGI (KM20L2 colon) [µM]
1 | COc1ccc2nc3cccc([N+](=O)[O-])c3c(NCCNCCN(C)C)c2c1 | 0.168 | 7.93 | 0.175 | 0.558 | 0.176 | 0.502 | 0.293 | – | – | –
2 | CC(C)(C)c1nc(-c2cccc(NS(=O)(=O)c3c(F)cccc3F)c2F)c(-c2ccnc(N)n2)s1 | 25.9 | 99 | 61.1 | > 100 | – | – | > 100 | 41.3 | – | –
3 | O=C1Nc2ccccc2/C1=C/c1cn(CC(O)Cn2cc(/C=C3\C(=O)Nc4ccccc43)c3ccccc32)c2ccccc12 (stereo not drawn) | – | – | 2.43 | 7.85 | – | – | 2.66 | 1.21 | – | –
4 | CC/C(Cc1ccccc1)=C(/c1ccc(O)cc1)c1ccc(OCCN2CCCC2)cc1 | 1.26 | 3.32 | 1.86 | 5.83 | – | – | 3.25 | 1.79 | – | –
5 | COc1cc(Nc2ncnc(Nc3ccc4c(n3)NC(=O)C(C)(C)O4)n2)cc(OC)c1OC | 1.18 | > 100 | 0.149 | 0.66 | – | – | > 100 | 1.46 | – | –
6 | CCC[CH2][Sn]([CH2]CCC)([CH2]CCC)[O]C(=O)C(OC)c1ccccc1 (stereo not drawn) | – | – | – | – | – | – | – | – | 0.0491 | 0.171
7 | Cc1c(C)c2c(c(C)c1OCC(=O)O)CC[C@@](C)(CCC[C@@H](C)CCC[C@@H](C)CCCC(C)C)O2 | 51.7 | 171 | 89 | 229 | – | – | 106 | 34.9 | – | –
8 | Oc1c(O)c(Cl)c(Cl)c(Cl)c1Cl | 3.26 | 11.3 | 3.75 | 23 | – | – | 18.1 | 3.43 | – | –
9 | O=C(Oc1ccccc1)C(Br)C(Br)c1ccccc1 (stereo not drawn) | 2.62 | 6.23 | 2.87 | 8.12 | – | – | 30.1 | 14.9 | – | –
10 | C=C1C(=O)O[C@H]2[C@H]1CC/C(COC(=O)NCCc1cccc(OC)c1)=C\CC[C@@]1(C)O[C@@H]21 | 1.61 | 4.03 | 3.43 | 21.6 | – | – | 5.54 | 2.3 | – | –
11 | CCOc1ccc(C(C)=O)cc1NC(=O)c1cccc(-c2nnn(CC)n2)c1 | – | – | 0.996 | > 100 | – | – | > 100 | 0.481 | – | –
12 | Nc1ccc(-c2ccc3ncc4ccc(=O)n(-c5cccc(C(F)(F)F)c5)c4c3c2)cn1 | < 0.01 | < 0.01 | < 0.01 | < 0.0253 | – | – | 5.38 | < 0.01 | – | –
13 | CC1=C(C#N)C(/C=C(\Cl)c2ccc(F)cc2)C(C#N)=C(C)N1 | > 100 | > 100 | > 100 | > 100 | – | – | > 100 | > 100 | – | –
14 | COc1ccc(-c2nc(N)c(C#N)c3c2CCOc2c-3ccc3ccccc23)cc1 | 22.8 | > 100 | 31.8 | 76.6 | – | – | > 100 | 22 | – | –
15 | Cc1ccc(O)c(NC2=C(Cl)C(=O)N(Cc3ccccc3)C2=O)c1 | 39 | > 100 | 21.2 | 65.3 | – | – | > 100 | 38.7 | – | –
16 | COc1cc(NC(C)CCCNC(C)C)c2ncccc2c1OC (stereo not drawn) | 17 | > 100 | 4.74 | 60.7 | – | – | – | – | – | –
17 | C[C@H](NC(=O)c1c(C(F)F)nn(C)c1Oc1cccc(C(F)(F)F)c1)c1ccc(C(=O)O)cc1 | > 100 | > 100 | > 100 | > 100 | – | – | > 100 | > 100 | – | –
18 | COc1ccc2[nH]c(C(=O)OCc3ccc4cccc(O)c4n3)cc2c1 | – | – | 1.78 | 4.6 | – | – | 1.32 | 0.247 | – | –
19 | COc1ccc2c(c1)O/C(=C\c1cccc(OCC(=O)Nc3nc(C)c(C)s3)c1)C2=O | 8.76 | > 100 | 5.24 | > 41.5 | – | – | – | 0.821 | – | –
20 | Cn1cncc1-c1c(F)cncc1NC(=O)c1c(N)nn2cc(F)cnc12 | 4.32 | > 100 | 1.21 | 24.2 | – | – | > 100 | 3.41 | – | –
21 | Cc1cn2c(/C=N/N=C(N)N)c(-c3ccncc3)nc2s1 | 16.2 | 31.6 | – | – | – | – | 32.8 | 18.8 | – | –
22 | COc1ccc(-c2nsc3c2NC(=O)CC3c2cccc(Cl)c2)cc1 (stereo not drawn) | 3.54 | > 100 | 2.98 | > 65.4 | – | – | > 100 | 2.12 | – | –

Row | Compound | GI50 (T-47D breast) [µM] | TGI (T-47D breast) [µM] | GI50 (HS 578T breast) [µM] | TGI (HS 578T breast) [µM] | GI50 (MDA-N) [µM] | TGI (MDA-N) [µM] | TGI (PC-3 prostate) [µM] | GI50 (PC-3 prostate) [µM] | GI50 (KM20L2 colon) [µM] | TGI (KM20L2 colon) [µM]
23 | NC(CSC(c1ccccc1)(c1ccccc1)c1ccc(F)cc1)C(=O)O (stereo not drawn) | 0.365 | 25.5 | 0.239 | 0.841 | – | – | > 35.9 | 0.4 | – | –
24 | Nc1nc2c(ccc3ccccc32)s1 | 95.5 | > 100 | > 100 | > 100 | – | – | > 100 | 33.7 | – | –
25 | CC(=O)O[C@H](C[C@H](C(C)C)N(C)C(=O)[C@@H](NC(=O)[C@H]1CCCCN1C)C(C)C)c1cccc(C(=O)N[C@@H](Cc2ccccc2)C[C@H](C)C(=O)O)n1 | 0.0818 | > 25 | – | – | – | – | > 25 | 0.0321 | – | –
26 | O=C([CH-]C(=O)c1ccccc1)c1ccccc1.O=C([CH-]C(=O)c1ccccc1)c1ccccc1.O=C([CH-]C(=O)c1ccccc1)c1ccccc1.[Cl-].[Zr+4] | – | – | – | – | – | – | – | – | 33.2 | > 100
27 | Cc1cccc(Nc2cc(Cl)nc(SCC(=O)O)n2)c1C | – | > 100 | – | > 100 | – | > 100 | > 100 | – | – | –
28 | O=C(/C=C\n1cnc(-c2cc(C(F)(F)F)cc(C(F)(F)F)c2)n1)N1CC(F)(F)C1 | 0.634 | > 21.6 | 0.409 | 5.34 | – | – | 4.54 | 0.277 | – | –
29 | O=C(CN(/C=C/C(=O)C(F)(F)F)c1ccccc1)c1ccc(Cl)cc1 | 30 | > 100 | 28.2 | 64.6 | – | – | 34.2 | 16.1 | – | –
30 | COc1ccc(-c2nn3ncccc3c2-c2ccnc(Nc3ccc4c(c3)OCCO4)n2)cc1 | 4.58 | > 25 | 10.2 | > 25 | – | – | > 25 | 9.12 | – | –
31 | S=C(CSc1ccccc1)Nc1cccc2ccccc12 | – | > 100 | – | > 100 | – | > 100 | > 100 | – | – | –
32 | NCCOc1ncccc1/C=C1\c2ccccc2-c2ccc([N+](=O)[O-])cc21 | 0.0283 | 0.305 | 0.255 | 1.26 | – | – | 1.11 | 0.177 | – | –
33 | CCc1nc2cc(/C=C/C(=O)NO)ccc2c(=O)n1CCc1ccc(OC)cc1 | 1.57 | 7.13 | 2.13 | 34.3 | – | – | > 100 | 3.32 | – | –
34 | CCn1c(=N)sc2nc3ccccc3n2c1=O | – | > 100 | – | > 100 | – | > 100 | > 100 | – | – | –
35 | COc1cc(-c2cc3ncccc3c3[nH]c(=O)c4cccnc4c23)cc(OC)c1OC | 0.789 | > 100 | 0.914 | > 100 | – | – | > 100 | 0.858 | – | –
36 | O=C(Nc1ccc2c(c1)OCCO2)C(=O)c1c[nH]c2ccccc12 | 9.86 | > 100 | 1.72 | 22.9 | – | – | > 100 | 2.17 | – | –
37 | COc1cc2nc(-c3cccc4cccnc34)nc(NC3CCN(Cc4ccccc4)CC3)c2cc1OC | – | – | 2.07 | 4.81 | – | – | 2.83 | 1.36 | – | –
38 | CC12OC(C(=O)C13CCC3)C1C(=O)c3ccc4c(ccc5ccccc54)c3C(=O)C12 (stereo not drawn) | 3.22 | 11.2 | 16 | 76.1 | – | – | 28.8 | 7.61 | – | –
39 | C=C(CN1c2ccccc2Sc2ccccc21)c1ccc(C(=O)Nc2ccccc2N)cc1 | 6.14 | > 100 | > 100 | > 100 | – | – | > 100 | 5.07 | – | –
40 | CC[C@@H](O)C[C@H]1CCC[C@@]2(C[C@@H]3OC(=O)/C=C/[C@@](C)(O)[C@@H](O)[C@H](C)[C@@H](O)[C@H](OC4CCC(N(C)C)C(C)O4)[C@@H](O)[C@](C)(O)CCCCC/C=C/[C@@H]4CC(C)(C)O[C@@]4(O)C[C@H](O2)[C@H]3C)O1 (stereo partly drawn) | – | 26.3 | – | 33.5 | – | 20.8 | 15.7 | – | – | –
41 | CCOC(=O)C#Cc1c(C(=O)OCC)nnn1[C@@H]1O[C@H](CO)[C@H]2OC3(CCCCC3)O[C@H]21 | 2.21 | 5.47 | 19.6 | 58.3 | – | – | 26.8 | 13.5 | – | –
42 | Cc1noc(C)c1-c1cnc2c(-c3ccc(C(=O)O)cc3)cn([C@@H](C)c3ccccn3)c2c1 | 0.623 | > 100 | 0.188 | > 100 | – | – | > 100 | 3.28 | – | –
43 | CCc1nn2ncccc2c1-c1ccnc(NC2CC2)n1 | > 25 | > 25 | > 18.5 | > 25 | – | – | > 25 | > 25 | – | –
